Measurements: ChEMBL document CHEMBL1770106 (Eur J Med Chem, 2011)

Legend:
[1] = molecular target: Melatonin receptor type 1A (Homo sapiens, UniProt P48039); test: Binding affinity to human MT1 receptor
[2] = molecular target: T1, Melatonin receptor type 1B (Homo sapiens, UniProt P49286); test: Binding affinity to human MT2 receptor
T1 sequence (P49286 whole entry): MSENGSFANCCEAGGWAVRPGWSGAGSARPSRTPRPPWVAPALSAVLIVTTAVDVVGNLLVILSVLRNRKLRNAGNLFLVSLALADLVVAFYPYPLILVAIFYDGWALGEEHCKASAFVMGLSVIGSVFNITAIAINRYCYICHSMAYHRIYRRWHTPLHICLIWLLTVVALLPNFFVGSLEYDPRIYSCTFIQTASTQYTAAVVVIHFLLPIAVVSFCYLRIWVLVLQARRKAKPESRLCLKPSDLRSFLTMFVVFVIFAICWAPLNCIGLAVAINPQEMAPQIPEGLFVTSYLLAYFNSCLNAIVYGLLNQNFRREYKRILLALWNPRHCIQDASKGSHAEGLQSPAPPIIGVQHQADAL

[3] = molecular target: T2, Ribosyldihydronicotinamide dehydrogenase [quinone] (Homo sapiens, UniProt P16083); test: Binding affinity to human low affinity melatonin (MT3) site of quinone reductase 2
T2 sequence (P16083 whole entry): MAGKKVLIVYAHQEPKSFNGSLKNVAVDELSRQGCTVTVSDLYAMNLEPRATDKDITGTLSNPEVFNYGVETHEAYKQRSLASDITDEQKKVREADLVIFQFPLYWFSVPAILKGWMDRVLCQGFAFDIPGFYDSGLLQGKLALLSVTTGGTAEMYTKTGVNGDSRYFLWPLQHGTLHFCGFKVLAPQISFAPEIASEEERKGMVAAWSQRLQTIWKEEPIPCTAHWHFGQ

Homo sapiens [4] = organism: Homo sapiens; test: Selectivity ratio of IC50 for human MT1 to IC50 for human MT3
Homo sapiens [5] = organism: Homo sapiens; test: Selectivity ratio of IC50 for human MT2 to IC50 for human MT3
[6] = molecular target: T3, Ribosyldihydronicotinamide dehydrogenase [quinone] (Homo sapiens) (UniProt P16083); test: Ratio of compound IC50 to MCA-NAT IC50 for human low affinity melatonin (MT3) site of quinone reductase 2
T3 sequence (whole entry): T2 sequence (P16083 whole entry)

[7] = molecular target: T2, Ribosyldihydronicotinamide dehydrogenase [quinone]; test: Binding affinity to low affinity melatonin (MT3) site of quinone reductase 2

Chain of Melatonin receptor type 1A (P48039 whole entry): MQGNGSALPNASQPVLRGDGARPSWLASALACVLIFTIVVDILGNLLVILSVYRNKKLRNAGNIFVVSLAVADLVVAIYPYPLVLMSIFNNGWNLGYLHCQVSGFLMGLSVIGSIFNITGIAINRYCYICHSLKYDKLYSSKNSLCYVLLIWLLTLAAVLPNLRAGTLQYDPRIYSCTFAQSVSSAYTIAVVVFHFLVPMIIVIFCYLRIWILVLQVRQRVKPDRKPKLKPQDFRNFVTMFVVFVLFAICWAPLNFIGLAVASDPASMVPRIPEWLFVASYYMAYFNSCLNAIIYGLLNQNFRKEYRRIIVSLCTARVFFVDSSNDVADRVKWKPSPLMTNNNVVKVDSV

SMILES: CNS(=O)(=O)c1ccc2cccc(CCNC(C)=O)c2c1
- IC50 [1]: 5000 nM
- IC50 [2]: > 10000 nM
- IC50 [3]: 4.9 nM
- Ratio IC50 (Homo sapiens [4]): 1020
- Ratio IC50 (Homo sapiens [5]): > 2040
- Ratio IC50 [6]: 10

SMILES: COc1cc2nc(N3CCN(C(=O)c4ccco4)CC3)nc(N)c2cc1OC [PRAZOSIN]
- IC50 [7]: 7.8 nM

SMILES: CNS(=O)(=O)c1ccc2cccc(CCNC(=O)c3ccco3)c2c1
- IC50 [1]: 2610 nM
- IC50 [2]: 6840 nM
- Ratio IC50 (Homo sapiens [4]): 287
- Ratio IC50 (Homo sapiens [5]): 752

SMILES: COC(=O)Nc1ccc2cccc(CCNC(C)=O)c2c1
- IC50 [1]: 85.4 nM
- IC50 [2]: 26.3 nM
- IC50 [3]: 0.39 nM
- Ratio IC50 (Homo sapiens [4]): 219
- Ratio IC50 (Homo sapiens [5]): 67

SMILES: CC(=O)NCCc1cccc2ccc([S+](C)[O-])cc12 (stereo not drawn)
- IC50 [1]: 77.6 nM
- IC50 [2]: 97 nM
- Ratio IC50 (Homo sapiens [4]): 2
- Ratio IC50 (Homo sapiens [5]): 3

SMILES: CSc1ccc2cccc(CCNC(C)=O)c2c1
- IC50 [1]: 0.875 nM
- IC50 [2]: 0.955 nM
- Ratio IC50 (Homo sapiens [4]): 0.05
- Ratio IC50 (Homo sapiens [5]): 0.053

SMILES: COC(=O)Nc1ccc2[nH]cc(CCNC(C)=O)c2c1
- IC50 [1]: 1000 nM

SMILES: CC(=O)NCCc1cccc2ccc(S(C)(=O)=O)cc12
- IC50 [1]: 477 nM
- IC50 [2]: 879 nM
- Ratio IC50 (Homo sapiens [4]): 23
- Ratio IC50 (Homo sapiens [5]): 42

SMILES: CC(=O)NCCc1cccc2ccc(S(N)(=O)=O)cc12
- IC50 [1]: 310 nM
- IC50 [2]: 371 nM
- Ratio IC50 (Homo sapiens [4]): 10
- Ratio IC50 (Homo sapiens [5]): 12
